The values that follow come from PubChem BioAssay (NCI).

What is called GI50 is the concentration that inhibits growth by half. By TGI is commonly meant the concentration at which net growth stops. A low value points to more potent growth arrest.

Where “and” joins values, the source holds several entries; their conditions need not be identical. Identical values can stand only once.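 In this assay, cells in 96-well plates receive the compound at five concentrations for 48 hours. Endpoints are linearly interpolated between the surrounding concentrations. The concentration for 50% growth inhibition is given as GI50. TGI: total growth inhibition.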

This test has as its system MDA-MB-468 breast. Briefly: DTP human tumour cell line panel, 48 h.
As for `CO[C@H](C(=O)O)[C@@H]1Cc2cc3cc(OC4CC(OC5CC(O)C(O)C(C)O5)C(O)C(C)O4)c(C)c(O)c3c(O)c2C(=O)[C@H]1OC1CC(OC2CC(OC3CC(C)(O)C(O)C(C)O3)C(O)C(C)O2)C(O)C(C)O1` (stereo not given in full), the GI50 is 0.159 µM and the TGI amounted to 0.885 µM.

As to `COC(=O)[C@]12CC[C@@H](C)[C@H](C)[C@@H]1C1=CC[C@@H]3[C@@]4(C)CC(=O)[C@H](OC(=O)c5ccco5)[C@@]5(C)COC(=C45)C[C@@]3(C)[C@]1(C)CC2`, the GI50 is 0.42 µM and the TGI was above 100 µM.

The molecule `CCCn1c(N)c(C(=O)CNc2ccc(I)cc2)c(=O)[nH]c1=O` gave a TGI above 100 µM.

In the case of `CCOC(=O)c1ccccc1-c1c2ccc(=[N+](C)C)cc-2oc2cc(N(C)C)ccc12`, the GI50 is 0.0469 µM and the TGI stood at 0.41 µM.

On to `Cc1c(C(=O)O[C@H]2[C@@H]3[C@H](C)CC[C@H]3[C@]3(C)O[C@@]2(C2CCCCC2)C[C@H]3OC(=O)CO)ccc2ccccc12`, for which the GI50 was 8.12 µM and the TGI is 16.1 µM.

Take `COc1cc(-c2nn(-c3ccc(NC(=O)c4cc(Cl)cc(Cl)c4)cc3)cc2-c2ccncc2)ccc1Cl`: the GI50 is above 100 µM and the TGI is above 100 µM.

For the molecule `O=[As]c1ccc(C(=O)c2ccc(Oc3ccccc3)cc2)cc1` (stereo not given), the GI50 was 0.0266 µM and the TGI stood at 0.101 µM.

As for `COc1cc([C@@H]2c3cc4c(cc3C(OC3O[C@@H]5COC(C)O[C@H]5[C@H](O)[C@H]3O)C3COC(=O)[C@@H]32)OCO4)cc(OC)c1O` (stereo not given in full), the GI50 is 1.1 µM and the TGI amounted to 4.5 µM.

As to `CC[C@H](NC(=O)[C@H](CS(=O)(=O)CC1CC1)N[C@@H](c1ccc(F)cc1)C(F)(F)F)C(=O)C(=O)NC1CC1`, the GI50 is 49.9 µM and the TGI is above 100 µM.

Take `COc1ccc2[nH]c(O)c(/C=c3/cc4c(c(-c5ccc(F)cc5)n3)=Nc3ccccc3-4)c2c1`: the GI50 was 2.22 µM and the TGI stood at 5.47 µM.

For the molecule `COc1cccc(-c2cc(=O)c3cc(Cl)cnc3[nH]2)c1`, the GI50 is 0.886 µM and the TGI is above 100 µM.

Regarding `COc1ccc(-c2c(N)n[nH]c2-c2cc(OC)c(OC)c(OC)c2)cc1`, the GI50 is 0.0946 µM and the TGI was found to be 2.87 µM.

As for `CC1(C)[C@@H](OC(N)=O)C=C[C@]2(C=O)[C@H]3CC[C@]4(C)[C@@H](c5ccc(=O)oc5)[C@@H](Cl)C[C@]4(O)C3=CC[C@@H]12`, the GI50 is 0.00613 µM and the TGI worked out at 0.0161 µM.

`C=CCCC(=O)N1C=CC(=O)[C@H](O)[C@@H]1/C=C/c1ccccc1`: the GI50 was 5.12 µM and the TGI was determined as 22.3 µM.

As for `O=[N+]([O-])c1cc(F)c2cccnc2c1O`, the GI50 is 14.7 µM and the TGI is 47.2 µM.

In the case of `CN(C)CCCOc1c2ccc(Cl)cc2nc2c1oc1ccc(Cl)cc12`, the GI50 is 2.12 µM and the TGI came to 7.03 µM.

Consider `CC(=O)N1CCN(CCOc2ccc(C3CCN(C4=Nn5c(nnc5C(F)(F)F)CC4)CC3)cc2)CC1`, for which the GI50 was 3.72 µM and the TGI is 61.1 µM.

As to `O=C(CCl)Nc1cc(O)c2c(c1)C(=O)c1cccc(O)c1C2=O`, the GI50 was 1.04 µM and the TGI was 2.86 µM.

Take `CCCCCc1c(C)[nH]c(/C=C2\N=C(c3ccc[nH]3)C=C2OCc2ccccc2)c1C`: the GI50 was 0.0969 µM and 0.0235 µM; the TGI was 0.764 µM and 0.268 µM.

Consider `CC(C)(C)C(=O)OCc1nc2cc3c(cc2c(=O)[nH]1)CCC3=O`, for which the GI50 is above 100 µM and the TGI is above 100 µM.

For the molecule `Oc1c(CN2CCOCC2)cc(COCc2ccccc2)c2cccnc12`, the GI50 is 2.39 µM and the TGI came out at 7.19 µM.

For the molecule `O=C(Nc1ccc(I)cc1F)c1cc(I)ccc1O`, the GI50 was 0.808 µM and the TGI came out at 2.46 µM.

Turning to `O=C(O)C(=O)CBr`, the GI50 was > 48.3 µM and 16.9 µM; the TGI was > 72.4 µM and 33.3 µM.

Turning to `Oc1ccc(Cl)cc1-c1cc(-c2ccc(F)cc2)n[nH]1`, the GI50 was 1.35 µM and the TGI came out at 5.35 µM.

`CCOc1cc(C(C)(C)C)ccc1C1=N[C@@](C)(c2ccc(Cl)cc2)[C@@](C)(c2ccc(Cl)cc2)N1C(=O)N1CCN(CCS(C)(=O)=O)CC1`: the GI50 was 2.1 µM and the TGI came to 6.34 µM.

With `CCCCOc1ccc(/C=N/Nc2cc(C)nc3ccc(Cl)cc23)cc1`, the GI50 was 1.53 µM and the TGI amounted to 2.97 µM.

`ClCC#CCSc1ncnc2c1ncn2CC#CCCl`: the GI50 was 1.43 µM and the TGI was determined as 3.2 µM.

Take `CC(C)(C)Nc1nc2c(OCCc3ccccc3)cccn2c1-c1cccc(F)c1`: the GI50 was 3.51 µM and the TGI worked out at 22.9 µM.

`CN1CCN(CCOc2ccc(-c3cnc4c(-c5ccc(F)cc5)cnn4c3)cc2)CC1`: the GI50 is 1.54 µM and the TGI is 3.19 µM.

Regarding `COc1cccc(C2=C(c3cn(C)c4cccc(OC)c34)C(=O)NC2=O)c1`, the GI50 was 6.88 µM and the TGI is above 25 µM.

On to `c1ccc2nc(OCCN3CC3)ccc2c1`, for which the GI50 was 2.77 µM and the TGI was 7.87 µM.

For `Cn1ncc(-c2ccc3c(=O)[nH]nc(CN)c3c2)c1-c1c(F)cc2ccccc2c1C#N`, the GI50 was 7.02 µM and the TGI worked out at 21.1 µM.

As to `OC(COc1cccc2ccccc12)CN1CCN(c2ccccc2Cl)CC1` (stereo not given), the GI50 is 15.3 µM and the TGI worked out at 30.1 µM.

As for `CCCCCCNC(=O)Oc1ccc(/C(=C(\C)c2ccccc2)c2ccc(OCCN(CC)CC)cc2)cc1`, the GI50 was 2.92 µM and the TGI was found to be 9.72 µM.

For the molecule `C#Cc1cc2c(N)c(C(=O)c3cc(OC)c(OC)c(OC)c3)[nH]c2cc1OC`, the GI50 is 0.497 µM and the TGI amounted to 43.2 µM.

`CN(C)CCNc1nc2ccccc2c2c(=O)c3ccccc3sc12`: the GI50 is 1.45 µM and the TGI was found to be 3.31 µM.

For `Nc1c(C(=O)Nc2cccc(Br)c2)sc2nc3c(cc12)C(O)CCC3` (stereo not given), the GI50 is 0.237 µM and the TGI was found to be 31.7 µM.

As for `CC(=O)C1(O)Cc2c(O)c3c(c(O)c2C(OC2CC(N)C(O)C(C)O2)C1)C(=O)c1ccccc1C3=O` (stereo not given), the GI50 was 0.0119 µM and the total growth inhibition concentration (TGI) amounted to 0.0398 µM.
